Data reported in patent US20150093333A1, “COMPOSITIONS, METHODS AND USES FOR PEPTIDES IN DIAGNOSIS, PROGRESSION AND TREATMENT OF CANCERS” (THE REGENTS OF THE UNIVERSITY OF COLORADO, body corporate, priority 2003, published 2015).
Like-named read-outs stand apart in the source and are kept apart here.

Key:
exosomes (Ex) = assay: Fluorescence enhancement of BK derived peptides with exosomes from rat blood plasma; assay type: binding; details: Ex treated peptide vs untreated
Text: In support of the observations with synthetic vesicles to translate to naturally-occurring extracellular vesicles, exosomes (Ex) purified from blood plasma of rats underwent inescapable tailshock stress as an acceptable model of exosome release. Ex have diameters of 40-100 nm, therefore providing a good biological model for testing the curvature-sensing peptides. […] The total number of Ex in the sample was counted by nanoparticle tracking analysis to ensure that is in the same order of magnitude as the 500 μM lipids in the synthetic models.

lipid vesicles = assay: Fluorescence anisotropy titration of BK derived peptides with lipid vesicles; assay type: binding; details: read-out: Dissociation constant (Kd)
Protocol: In another method, synthetic lipid vesicles of various sizes were prepared to model different membrane curvatures for testing interactions. Three compositions of vesicles were designed to closely resemble natural biological membranes named lipid model (LM) 1, 2, and 3. These vesicles were prepared by extrusion under inert, pressure-controlled method through polycarbonate membranes with pore sizes of 400, 80, and 30 nm to cover a wide range of curvatures. Since curvature is defined as the inverse of radius, the smallest size represents vesicles with the highest curvature. […] These vesicles were further characterized by transmission electron microscopy (TEM) to verify the sizes found by DLS.
In other exemplary methods, binding strength of the interactions were assessed. Fluorescence anisotropy (FA) assay was adopted to measure the binding constants. The peptide partitions between the hydrophobic lipid bilayer and the aqueous solvent and the dissociation constant (Kd) calculated as the reciprocal of the molar partition coefficient. A constant concentration of peptide was titrated with increasing concentration of lipid vesicles and the FA due to the change in the rotational time of the small peptide when it binds to the relatively bigger lipid vesicles was measured and plotted versus the total lipid concentration. […] Fluorescence anisotropy titration was performed to obtain the Kd values. Lower values indicate stronger binding. LM=liposome model. [Peptide]=1 μM; [Lipid titrant]=2 mM.

monomeric Bradykinin derivative: GRPPGFSPFR with ε-azidolysine and NBD-X fluorophore at the N-terminus [Peptide 1]
fluorescence intensity (exosomes (Ex)): 3.09±0.08 RFU
Kd (lipid vesicles; LM 1 V58): 996 ± 230 µM
Kd (lipid vesicles; LM 1 V116): 940 ± 160 µM
Kd (lipid vesicles; LM 1 V454): 7.14 µM
Kd (lipid vesicles; LM 2 V116): 585 ± 62 µM
Kd (lipid vesicles; LM 2 V454): > 1000 µM
Kd (lipid vesicles; LM 2 V): 488 ± 72 µM
Kd (lipid vesicles; LM 3 V58): 407 ± 56 µM
Kd (lipid vesicles; LM 3 V116): 893 ± 101 µM
Kd (lipid vesicles; LM 3 V454): 902 ± 141 µM
